Measurements taken from PubChem BioAssay AID1963827 (Molecular Pharmacology Branch, DTP, NCI, 2024).

Tested on: 994946-033-R-J1-PDC complex spheroid viability
Assay: Anticancer human tumor 994946-033-R-J1-PDC patient-derived melanoma cell line growth inhibition [POLQ]
Conditions: for IC50: curve of first compound; for viability, T/C: stronger effect = lower value
Method in brief: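 Three-cell-type spheroids modelling solid tumor plus stroma served as the readout system; POL inhibitors were tested individually and in combination, concentration ranges set by clinical Cmax where known.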

[1] = second compound 0.0316 µM, first compound 0.0316 µM
[2] = second compound 0.0316 µM, first compound 0.1 µM
[3] = second compound 0.0316 µM, first compound 0.316 µM
[4] = second compound 0.0316 µM, first compound 1 µM
[5] = second compound 0.1 µM, first compound 0.0316 µM
[6] = second compound 0.1 µM, first compound 0.1 µM
[7] = second compound 0.1 µM, first compound 0.316 µM
[8] = second compound 0.1 µM, first compound 1 µM
[9] = second compound 0.316 µM, first compound 0.0316 µM
[10] = second compound 0.316 µM, first compound 0.1 µM
[11] = second compound 0.316 µM, first compound 0.316 µM
[12] = second compound 0.316 µM, first compound 1 µM
[13] = second compound 1 µM, first compound 0.0316 µM
[14] = second compound 1 µM, first compound 0.1 µM
[15] = second compound 1 µM, first compound 0.316 µM
[16] = second compound 1 µM, first compound 1 µM
[17] = second compound 3.16 µM, first compound 0.0316 µM
[18] = second compound 3.16 µM, first compound 0.1 µM
[19] = second compound 3.16 µM, first compound 0.316 µM
[20] = second compound 3.16 µM, first compound 1 µM
[21] = second compound 10 µM, first compound 0.0316 µM
[22] = second compound 10 µM, first compound 0.1 µM
[23] = second compound 10 µM, first compound 0.316 µM
[24] = second compound 10 µM, first compound 1 µM
[25] = second compound 0.0316 µM, first compound 0.00316 µM
[26] = second compound 0.0316 µM, first compound 0.01 µM
[27] = second compound 0.1 µM, first compound 0.00316 µM
[28] = second compound 0.1 µM, first compound 0.01 µM
[29] = second compound 0.316 µM, first compound 0.00316 µM
[30] = second compound 0.316 µM, first compound 0.01 µM
[31] = second compound 1 µM, first compound 0.00316 µM
[32] = second compound 1 µM, first compound 0.01 µM
[33] = second compound 3.16 µM, first compound 0.00316 µM
[34] = second compound 3.16 µM, first compound 0.01 µM
[35] = second compound 10 µM, first compound 0.00316 µM
[36] = second compound 10 µM, first compound 0.01 µM
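Further: spheroids exposed to drugs for 7 days.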
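Wherever viability, T/C is given: 100% = DMSO vehicle treated spheroids.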

CC1COCCN1c1cc(C2(O)CC3CCC(C2)O3)c2cnn(-c3ccn[nH]3)c2n1 (stereo unspecified) + COC1C(OC(N)=O)C(O)C(Oc2ccc3c(O)c(NC(=O)c4ccc(O)c(CC=C(C)C)c4)c(=O)oc3c2C)OC1(C)C
IC50 (second compound 0.0316 µM): 36.6 nM | IC50 (second compound 0.1 µM): 50.5 nM | IC50 (second compound 0.316 µM): 34 nM | IC50 (second compound 1 µM): 68.1 nM | IC50 (second compound 3.16 µM): < 31.6 nM | IC50 (second compound 10 µM): 44.5 nM | viability, T/C [1]: 52.4% | viability, T/C [2]: 39.7% | viability, T/C [3]: 17.2% | viability, T/C [4]: 25.7% | viability, T/C (second compound 0.0316 µM, first compound 3.16 µM): 12.7% | viability, T/C (second compound 0.0316 µM, first compound 10 µM): 6.6% | viability, T/C [5]: 61.9% | viability, T/C [6]: 32.1% | viability, T/C [7]: 19.1% | viability, T/C [8]: 17.5% | viability, T/C (second compound 0.1 µM, first compound 3.16 µM): 11.9% | viability, T/C (second compound 0.1 µM, first compound 10 µM): 6.15% | viability, T/C [9]: 52.1% | viability, T/C [10]: 29.5% | viability, T/C [11]: 19.2% | viability, T/C [12]: 16.5% | viability, T/C (second compound 0.316 µM, first compound 3.16 µM): 14.3% | viability, T/C (second compound 0.316 µM, first compound 10 µM): 6.89% | viability, T/C [13]: 79.2% | viability, T/C [14]: 30.6% | viability, T/C [15]: 25.5% | viability, T/C [16]: 20.1% | viability, T/C (second compound 1 µM, first compound 3.16 µM): 14.2% | viability, T/C (second compound 1 µM, first compound 10 µM): 5.41% | viability, T/C [17]: 46.6% | viability, T/C [18]: 25.5% | viability, T/C [19]: 23.7% | viability, T/C [20]: 18.9% | viability, T/C (second compound 3.16 µM, first compound 3.16 µM): 8.1% | viability, T/C (second compound 3.16 µM, first compound 10 µM): 4.51% | viability, T/C [21]: 56.8% | viability, T/C [22]: 35.9% | viability, T/C [23]: 27.6% | viability, T/C [24]: 22.5% | viability, T/C (second compound 10 µM, first compound 3.16 µM): 15.3% | viability, T/C (second compound 10 µM, first compound 10 µM): 5.9%

C=CCn1c(=O)c2cnc(Nc3ccc(N4CCN(C)CC4)cc3)nc2n1-c1cccc(C(C)(C)O)n1 + COC1C(OC(N)=O)C(O)C(Oc2ccc3c(O)c(NC(=O)c4ccc(O)c(CC=C(C)C)c4)c(=O)oc3c2C)OC1(C)C
IC50 (second compound 0.0316 µM): 855 nM | IC50 (second compound 0.1 µM): 863 nM | IC50 (second compound 0.316 µM): 675 nM | IC50 (second compound 1 µM): > 1000 nM | IC50 (second compound 3.16 µM): > 1000 nM | IC50 (second compound 10 µM): 966 nM | viability, T/C [25]: 89.1% | viability, T/C [26]: 115% | viability, T/C [1]: 126% | viability, T/C [2]: 117% | viability, T/C [3]: 92.8% | viability, T/C [4]: 43.2% | viability, T/C [27]: 93.1% | viability, T/C [28]: 101% | viability, T/C [5]: 117% | viability, T/C [6]: 96% | viability, T/C [7]: 89.2% | viability, T/C [8]: 44.3% | viability, T/C [29]: 98.5% | viability, T/C [30]: 109% | viability, T/C [9]: 134% | viability, T/C [10]: 102% | viability, T/C [11]: 83.9% | viability, T/C [12]: 32.8% | viability, T/C [31]: 110% | viability, T/C [32]: 118% | viability, T/C [13]: 94.9% | viability, T/C [14]: 102% | viability, T/C [15]: 104% | viability, T/C [16]: 60.8% | viability, T/C [33]: 91.9% | viability, T/C [34]: 127% | viability, T/C [17]: 106% | viability, T/C [18]: 83.2% | viability, T/C [19]: 56.5% | viability, T/C [20]: 53.9% | viability, T/C [35]: 101% | viability, T/C [36]: 104% | viability, T/C [21]: 120% | viability, T/C [22]: 114% | viability, T/C [23]: 93.8% | viability, T/C [24]: 48.6%

COc1cccc(OCCCN)c1-c1cc(Nc2cnc(C#N)cn2)n[nH]1 + Cc1cccc(N(C)C(=O)C2C(O)CCN2c2nc(C)cc(C(F)(F)F)c2C#N)c1
IC50 (second compound 0.0316 µM): 25.6 nM | IC50 (second compound 0.1 µM): 14.7 nM | IC50 (second compound 0.316 µM): 17.7 nM | IC50 (second compound 1 µM): 9.64 nM | IC50 (second compound 3.16 µM): 14.3 nM | IC50 (second compound 10 µM): 79.8 nM | viability, T/C [25]: 96% | viability, T/C [26]: 93.4% | viability, T/C [1]: 40.3% | viability, T/C [2]: 22.7% | viability, T/C [3]: 22% | viability, T/C [4]: 17.4% | viability, T/C [27]: 99.8% | viability, T/C [28]: 60.3% | viability, T/C [5]: 29.9% | viability, T/C [6]: 19% | viability, T/C [7]: 19.1% | viability, T/C [8]: 18.6% | viability, T/C [29]: 76.6% | viability, T/C [30]: 68.5% | viability, T/C [9]: 31.3% | viability, T/C [10]: 20.1% | viability, T/C [11]: 24.2% | viability, T/C [12]: 12.4% | viability, T/C [31]: 120% | viability, T/C [32]: 44.5% | viability, T/C [13]: 36.8% | viability, T/C [14]: 33.1% | viability, T/C [15]: 27% | viability, T/C [16]: 18.6% | viability, T/C [33]: 88.9% | viability, T/C [34]: 51% | viability, T/C [17]: 46.8% | viability, T/C [18]: 18.1% | viability, T/C [19]: 28.9% | viability, T/C [20]: 18.5% | viability, T/C [35]: 68% | viability, T/C [36]: 57.6% | viability, T/C [21]: 86.7% | viability, T/C [22]: 44.9% | viability, T/C [23]: 38.2% | viability, T/C [24]: 23.5%
